# Columns and labels:
# [1] = Pharmacokinetics after intravitreal administration in the rabbit; assay type: in vivo, rabbits (Oryctolagus cuniculus); conditions: plasma and ocular tissues, FIG. 9A-9D
# Experimental: To determine the pharmacokinetic and safety properties of Edonentan following intravitreal administration in the rabbit, rabbits (Oryctolagus cuniculus) received bilateral intravitreal injections (20 μL injection volume/eye). Following the injections, animals were tranquilized with a ketamine/xylazine cocktail, and then the animals were euthanized with an overdose of sodium pentobarbital (Euthasol). Animals designated for the pharmacokinetic analysis were euthanized at different time points (e.g. 12, 16, 24, 36 and 48 hours). At least 1.0 mL of whole blood was drawn from the marginal ear vein or cardiac puncture (terminal bleed only) into K2EDTA tubes for plasma collection and processed for analytical analysis.
# Immediately following euthanasia, the eyes was enucleated. Aqueous humor from both eyes was removed via syringe and snap frozen for analysis. Eyes were dissected when frozen to isolate various ocular tissues and minimize drug diffusion to adjacent tissues. Tissues from left and right eyes were collected in separate vials for analysis. List of tissues collected include plasma and aqueous humor, iris/ciliary body (ICB), retina, vitreous humor and RPE/choroid. The pharmacokinetic properties of intravitreally delivered Edonentan in rabbits are shown in FIG. 9A, FIG. 9B, FIG. 9C and FIG. 9D.
# laser-induced glaucoma = assay: Laser-induced non-human primate glaucoma model, optic nerve head blood flow (LSFG); assay type: in vivo, rhesus macaque, Macaca mulatta; conditions: IVT 50 μL of 0.02, 0.2 or 2.0 mg/mL, glaucomatous eye, over 6 hours
# Experimental: Non-human primates (rhesus macaque, Macaca mulatta) were obtained for this study. One eye of each animal underwent induction of elevation of intraocular pressure (IOP) by repeated laser photocoagulation of the trabecular meshwork. Imaging sessions were repeated to monitor the optic nerve head (ONH) and retinal structural changes. A study was performed to compare an experimental glaucoma eye and a contralateral healthy eye (control) of three non-human primates in global average mean blur rate (MBR) and MBR change from baseline over time as an index of ONH blood flow in a laser-induced glaucoma model. More specifically, a vehicle control, 0.02 mg/mL of Edonentan, 0.2 mg/mL of Edonentan, or 2.0 mg/mL of Edonentan was intravitreally administered (50 μL) to a glaucomatous eye of each of three non-human primates (rhesus macaque, Macaca mulatta). These graphs show the ONH blood flow in the three non-human primates after IVT administration of a vehicle alone (FIG. 7A, FIG. 7E, and FIG. 7I), 0.02 mg/mL of Edonentan (FIG. 7B, FIG. 7F, and FIG. 7J), 0.2 mg/mL of Edonentan (FIG. 7C, FIG. 7G, and FIG. 7K) or 2.0 mg/mL of Edonentan (FIG. 7D, FIG. 7H, and FIG. 7L).
# ET-1 induced vasospasm = assay: Rabbit ET-1 induced vasospasm model, retinal blood flow; assay type: in vivo
# Experimental: Adult, male Dutch-belted rabbits were given a 20 μl intravitreal injection (IVT) of 0.5 μg of ET-1 followed by a 20 μl intravitreal injection of 10-100 μg Edonentan given 30 min after the ET-1 administration. IOP, optical coherence tomography-angiography (OCT-A), and fluorescein angiograms (FA) were performed at pre-specified time points (30, 45, 60, and 75 min) following ET-1 and Edonentan administration to assess retinal blood flow changes induced by ET-1+/−Edonentan. […] To evaluate the effect of retinal blood flow following intravitreally administered endothelin-1 (ET-1) followed by the antagonist Edonentan in the rabbit, rabbits (Oryctolagus cuniculus) were given a 20 μL intravitreal injection of ET-1 in the left eye followed by a 20 μL intravitreal injection of Edonentan at 2 (or 3) different doses (e.g. 0.1 μg, 0.5 μg, 2.5 μg). The pulse ox, tonometry, optical coherence tomography angiography (OCTA), fluorescein angiography (FA) and retinal leakage scoring were performed for evaluation.
# ETA receptor = target: T1, ETA receptor (Homo sapiens, UniProt P25101); assay: Functional potency for ETA receptor; assay type: biochemical
# T1 sequence (P25101 21-427): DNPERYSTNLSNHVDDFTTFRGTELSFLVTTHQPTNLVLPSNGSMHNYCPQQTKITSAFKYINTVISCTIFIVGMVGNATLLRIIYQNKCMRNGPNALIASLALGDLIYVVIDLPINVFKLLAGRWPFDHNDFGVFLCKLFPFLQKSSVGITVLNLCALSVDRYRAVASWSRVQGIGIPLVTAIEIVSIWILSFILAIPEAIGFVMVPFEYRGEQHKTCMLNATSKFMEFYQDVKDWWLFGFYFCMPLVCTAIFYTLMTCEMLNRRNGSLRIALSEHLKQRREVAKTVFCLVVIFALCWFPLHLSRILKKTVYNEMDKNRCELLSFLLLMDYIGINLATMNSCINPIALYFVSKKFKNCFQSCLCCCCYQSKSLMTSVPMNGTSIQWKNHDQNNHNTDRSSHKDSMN
# Source text: (§1) In the above table, the physicochemical data, e.g., solubility, were obtained following standard protocols known in the field (see, e.g., Reis et al., Mini Rev Med Chem., 2010, 10(11):1071-6; Avdeef et al., Expert Opin Drug Metab Toxicol., 2005, 1(2):325-42; Bharate et al., Comb Chem High Throughput Screen., 2016, 19(6):461-9; and Jain et al., J Pharm Biomed Anal., 2013, 86:11-35); and the biochemical data, i.e., potency for ETA/ETB, were obtained following the protocols known in the field (see, e.g., Kirkby et al., Br J Pharmacol., 2008, 153(6):1105-19; and Maguire et al., Br J Pharmacol., 2014, 171(24):5555-72).
# ETB receptor = target: T2, ETB receptor (Homo sapiens, UniProt P24530); assay: Functional potency for ETB receptor; assay type: biochemical
# T2 sequence (P24530 27-442): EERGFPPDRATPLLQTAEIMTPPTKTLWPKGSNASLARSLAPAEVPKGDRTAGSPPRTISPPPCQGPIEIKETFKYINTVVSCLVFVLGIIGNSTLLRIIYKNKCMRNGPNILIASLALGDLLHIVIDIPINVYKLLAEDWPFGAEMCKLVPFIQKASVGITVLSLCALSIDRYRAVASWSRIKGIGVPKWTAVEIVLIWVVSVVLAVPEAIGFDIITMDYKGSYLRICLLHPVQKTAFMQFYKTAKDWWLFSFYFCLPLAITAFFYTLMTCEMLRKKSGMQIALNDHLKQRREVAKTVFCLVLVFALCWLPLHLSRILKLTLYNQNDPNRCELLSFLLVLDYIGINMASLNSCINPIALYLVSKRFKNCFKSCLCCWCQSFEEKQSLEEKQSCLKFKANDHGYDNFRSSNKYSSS
# Source text: as §1
smiles,measurement,setting,value
"Cc1onc(NS(=O)(=O)c2ccccc2-c2ccc(-c3ncco3)cc2CN(C)C(=O)CC(C)(C)C)c1C [Edonentan, N-[[2′-[[(4,5-dimethyl-3-isoxazolyl)amino]sulfonyl]-4-(2-oxazolyl)[1,1′-biphenyl]-2-yl]methyl]-N,3,3-trimethylbutanamide]",t1/2,[1],longer
same,"Optic nerve head (ONH) blood flow, mean blur rate (MBR)",laser-induced glaucoma,improvement of ONH blood flow in a dose-dependent manner
same,"Fluorescein dye velocity, dose dependence","ET-1 induced vasospasm; 0.1 μg ET-1 and 0.1, 0.5, 2.5 or 10 μg Edonentan IVT, FIG. 8A/8B",dose-response
same,"Effect of ET-1 (retinal vasoconstriction) after antagonist, fluorescein angiography","ET-1 induced vasospasm; 0.5 μg ET-1 IVT, 10 μg Edonentan IVT 30 min after ET-1",reversed
same,Time to reversal of ET-1 effect,"ET-1 induced vasospasm; 0.5 μg ET-1 IVT, 10 μg Edonentan IVT, time after ET-1 (60 min after Edonentan)",≤ 90 min
same,Fluorescein dye velocity as an index of retinal blood flow,"ET-1 induced vasospasm; 0.5 μg ET-1 and 10 μg antagonist IVT, healthy rabbits, FIG. 3",improved to control levels
same,IC50,ETA receptor; functional potency,1.54 nM
same,Functional Potency for ETA and ETB Receptors (rating),ETA receptor; rating in words,High potency
same,IC50,ETB receptor,590 nM

# — patent US11738007B2, “Treatment of glaucoma using endothelin receptor antagonists” (Perfuse Therapeutics, Inc., priority 2019, dated 2023)
